Columns and labels:
[1] = Stability HPLC data summary of Form A1 of valbenazine oxalate (appearance, assay, HPLC, chiral HPLC, moisture on storage); format: physicochemical; settings: 2~8° C.; for Appearance: double PE bags sealed in laminated aluminum foil bag
Source text: Stability Data of Form A1 of Valbenazine Oxalate [table]

[2] = Stability of valbenazine salts, general statement

Assay (Anhydrous) ([1]; 0 months): 100.1% | Chiral HPLC Chiral imp-1 ([1]; 0 months): 0.01% | Chiral HPLC Chiral imp-2 ([1]; 0 months): 0.04% | Chiral HPLC Chiral imp-3 ([1]; 0 months): 0.03% | Chiral HPLC Valbenazine ([1]; 0 months): 99.93% | HPLC Imp-1 (LSI) ([1]; 0 months): 0.03% | HPLC Imp-2 ([1]; 0 months): 0.01% | HPLC Imp-3 ([1]; 0 months): 0.02% | HPLC Imp-4 ([1]; 0 months): 0.02% | HPLC Imp-5 ([1]; 0 months): 0.01% | HPLC Imp-7 ([1]; 0 months): 0.01% | HPLC Valbenazine ([1]; 0 months): 99.81% | Moisture ([1]; 0 months): 0.12% | Assay (Anhydrous) ([1]; 0.5 months): 100.8% | Chiral HPLC Chiral imp-1 ([1]; 0.5 months): 0.01% | Chiral HPLC Chiral imp-2 ([1]; 0.5 months): 0.04% | Chiral HPLC Chiral imp-3 ([1]; 0.5 months): 0.03% | Chiral HPLC Valbenazine ([1]; 0.5 months): 99.93% | HPLC Imp-1 (LSI) ([1]; 0.5 months): 0.03% | HPLC Imp-3 ([1]; 0.5 months): 0.03% | HPLC Imp-5 ([1]; 0.5 months): 0.01% | HPLC Imp-7 ([1]; 0.5 months): 0.02% | HPLC Valbenazine ([1]; 0.5 months): 99.84% | Moisture ([1]; 0.5 months): 0.2% | Assay (Anhydrous) ([1]; 1 months): 101.0% | Chiral HPLC Chiral imp-1 ([1]; 1 months): 0.01% | Chiral HPLC Chiral imp-2 ([1]; 1 months): 0.04% | Chiral HPLC Valbenazine ([1]; 1 months): 99.95% | HPLC Imp-1 (LSI) ([1]; 1 months): 0.03% | HPLC Imp-2 ([1]; 1 months): 0.01% | HPLC Imp-3 ([1]; 1 months): 0.02% | HPLC Imp-4 ([1]; 1 months): 0.01% | HPLC Imp-5 ([1]; 1 months): 0.01% | HPLC Imp-7 ([1]; 1 months): 0.01% | HPLC Valbenazine ([1]; 1 months): 99.84% | Moisture ([1]; 1 months): 0.19% | Assay (Anhydrous) ([1]; 3 months): 100.33% | Chiral HPLC Chiral imp-1 ([1]; 3 months): 0.01% | Chiral HPLC Chiral imp-2 ([1]; 3 months): 0.07% | Chiral HPLC Chiral imp-3 ([1]; 3 months): 0.02% | Chiral HPLC Valbenazine ([1]; 3 months): 99.91% | HPLC Imp-1 (LSI) ([1]; 3 months): 0.04% | HPLC Imp-2 ([1]; 3 months): 0.02% | HPLC Imp-3 ([1]; 3 months): 0.04% | HPLC Imp-4 ([1]; 3 months): 0.03% | HPLC Imp-5 ([1]; 3 months): 0.02% | HPLC Imp-7 ([1]; 3 months): 0.01% | HPLC Valbenazine ([1]; 3 months): 99.78% | Moisture ([1]; 3 months): 0.4% | Appearance ([1]; 0 months): White | Appearance ([1]; 0.5 months): White solid | Appearance ([1]; 1 months): White solid | Appearance ([1]; 3 months): White solid | stability (in words) [2]: good stability
Substance: valbenazine oxalate [Form A1 of valbenazine oxalate]

From patent US20210253567A1, “AMORPHOUS AND CRYSTALLINE FORMS OF VALBENAZINE SALT” (SUZHOU PENGXU PHARMATECH CO., LTD., priority 2018, published 2021)
